Read-outs that look alike come from different tables or passages of the source.
How the values were obtained:
[1] = test system: human rhabdomyosarcoma (RD cell line) xenografted in nude mice; test: Anti-tumor effect in vivo, RD xenograft; details: intravenous
Description: In vivo cytotoxic efficacy was evaluated first on a model of human rhabdomyosarcoma xenografted in nude mice. The model used is RD cell line. The cells were first amplified in culture and counted. Cells were injected subcutaneously in both flanks of each mouse.
The administration was performed by intravenous route at day 0.

RMS-1 cell line [2] = test: cells; details: for IC50: read-out: In vitro Activity (IC50) RMS-1
Description: (§1) The experiments were conducted in the absence of cytochrome.
(§2) The cells were seeded in 96-well plates at optimal cell density determined previously and incubated with 100 μL of DMEM or RPMI containing 10% of FBS and 100 U/mL penicillin and 100 μg/mL streptomycin at 37° C., 5% CO2 in moist atmosphere. After 24 h, the cells were treated with 100 μL of the different pre-activated prodrugs at different concentrations:
(§3) Depending on the cell line, 2 to 5 h incubation are needed to obtain the optimum optical density which was measured at 490 nm wavelength using a microplate reader (EL808, Biotek Instrument). Untreated cells were used as control. Each compound concentration was tested in six replicates.

[3] = test system: A673 (human Ewing Sarcoma cell line); test: cells; details: for IC50: Homo sapiens, read-out: In vitro Activity (IC50) A673
Description: as §1, §2, §3

[4] = Physico-chemical characterisation of nano-assemblies (DLS, Zeta potential, drug loading); type: physicochemical; details: nanoprecipitation acetone/water, no surfactant
Description: Nano-assemblies (NAs) from prodrugs Geranyloxy-IFO (3b) at a concentration of 2 mg/mL and 5 mg/ml, were prepared in a single step by nanoprecipitation of solution (8 mg/mL in acetone) in milliQ® water (ratio acetone:water 1:4; v:v). Formation of NAs occurred immediately without the use of any surfactant. The organic solvent was then evaporated at room temperature under vacuum using a Rotavapor® and the organic solvent-free colloidal dispersions were stored at 4° C.
The hydrodynamic diameter of the NAs was measured at 20° C. by Dynamic Light scattering using a Nanosizer ZS (Malvern Instrument Ltd, France). An amount of 20 μL of the suspension was diluted in 980 μL of Milli-Q water. The results give the mean hydrodynamic diameter of the dispersed NAs from three independent series of ten measurements. The standard deviation and the polydispersity index were also given.
The Zeta (ξ) potential was also determined by dilution of 20 μL of the suspension in 980 μL of a […] solution using a Nanosizer ZS (Malvern Instrument Ltd, France).

[5] = squalenoyl IFO derivatives described in WO2012/076824; cited from earlier work
[6] = test system: A673 (human Ewing Sarcoma cell line); details: comparison values for squalenoyl derivatives (WO2012/076824); cited from earlier work
RMS-1 cell line [7] = details: comparison values for squalenoyl derivatives (WO2012/076824); cited from earlier work
[8] = In vitro release of 4-HO-IFO in mouse plasma; type: in vitro ADME; details: 37° C., without activation by cytochromes
[9] = RMS-1, 72 h, absence of cytochrome
[10] = A673, 72 h, absence of cytochrome

With `O=P1(NCCCl)OCCCN1CCCl` (stereo not drawn) [IFO, ifosfamide] as the compound, how does the “tumor volume growth (Vtjx/Vtj0)” value ([1]; single dose 300 mg/kg, day 0) read?
Its value is “antitumor activity”.

And the “cytotoxicity, in words” value (RMS-1 cell line [2])?
Its value is “did not exhibit significant cytotoxicity”.

And the IC50 (RMS-1 cell line [2]; RMS1, 72 h)?
Its IC50 is greater than 50 µM.

And the “cytotoxicity, in words” value [3]?
Its value is “did not exhibit significant cytotoxicity”.

And the IC50 ([3]; A673, 72 h)?
The IC50 was greater than 200 µM.

With `CC(C)CCCC(C)CCOC1CCOP(=O)(NCCCl)N1CCCl` (stereo not drawn) [13,17-Dimethyloctyloxy-IFO (3c), 13,17-Dimethyloctyloxy-IFO] as the compound, how does the “formation of nanoparticles (self-assembly)” value (“formation of nanoparticles” for short) [4] read?
Its value is “did not provide any suspension of nanoparticles”.

And the IC50 (RMS-1 cell line [2]; RMS1, 72 h)?
Its IC50 is greater than 50 µM.

And the IC50 (RMS-1 cell line [2]; RMS1, 96 h)?
The IC50 was 11.3 ± 5.8 µM.

And the “cytotoxicity, in words” value (RMS-1 cell line [2]; [9])?
Its value is “did not exhibit significant cytotoxicity”.

What about the “cytotoxicity, in words” value [3, 10] of the same compound?
Its value is “did not exhibit significant cytotoxicity”.

What about the IC50 ([3]; A673, 72 h) of the same compound?
The IC50 was greater than 200 µM.

And the IC50 ([3]; A673, 96 h)?
Its IC50 is 24.5 ± 2.1 µM.

With `CC(C)=CCC/C(C)=C/CO` [Geraniol, (trans)-3,7-dimethyl-2,6-octadien-1-ol] as the compound, how does the “tumor volume growth (Vtjx/Vtj0)” value ([1]; single dose 59 mg/kg, day 0) read?
Its value is “No tumor growth inhibition”.

And the “cytotoxicity, in words” value (RMS-1 cell line [2])?
Its value is “The same results were observed”.

And the IC50 (RMS-1 cell line [2]; RMS1, 72 h)?
Its IC50 is greater than 50 µM.

And the “cytotoxicity, in words” value [3]?
Its value is “The same results were observed”.

What about the IC50 ([3]; A673, 72 h) of the same compound?
Its IC50 is greater than 200 µM.

What does the source list for `CCCCCOC1CCOP(=O)(NCCCl)N1CCCl` (stereo not drawn) [Pentyloxy-IFO (3a), Pentyloxy-IFO]?
formation of nanoparticles (self-assembly) [4]: did not provide any suspension of nanoparticles; IC50 (RMS-1 cell line [2]; RMS1, 72 h): 5.3 ± 1.7 µM; IC50 ([3]; A673, 72 h): 17.7 ± 2.3 µM

What does the source list for `CC(C)CCCC(C)CCO` (stereo not drawn) [3,7-dimethyloctanol]?
cytotoxicity, in words (RMS-1 cell line [2]): The same results were observed; IC50 (RMS-1 cell line [2]; RMS1, 72 h): > 50 µM; cytotoxicity, in words [3]: The same results were observed; IC50 ([3]; A673, 72 h): > 200 µM

What does the source list for `CC(C)=CCC/C(C)=C/CC/C(C)=C/CC/C=C(\C)CC/C=C(\C)CCCOC1CCOP(=O)(NCCCl)N1CCCl` (stereo not drawn) [SQ-IFO]?
drug loading [5]: 40.4%; mean diameter [5]: 147 nm; IC50 [6]: 22 ± 5 µM; IC50 (RMS-1 cell line [7]): 11.4 ± 5 µM

Which “formation of nanoparticles” value ([4]; listed as Geranyloxy-IFO) does the source give for `CC(C)=CCC/C(C)=C/COC1CCOP(=O)(NCCCl)N1CCCl` (stereo not drawn) [Geranyloxy-IFO (bulk) (3b), Geranyloxy-IFO] here?
The value was “gave satisfactory NAs”.

What about the “formation of nanoparticles” value ([4]; listed as geranyloxy-IFO) of the same compound?
Its value is “able to self-organize into nanoparticles”.

What about the “tumor volume growth (Vtjx/Vtj0)” value ([1]; single dose 158 mg/kg (equivalent to 100 mg/kg of IFO), day 0, free form, listed as Geranyloxy-IFO) of the same compound?
The value was “showed antitumor activity”.

What about the “tumor volume growth (Vtjx/Vtj0)” value ([1]; single dose 158 mg/kg (equivalent to 100 mg/kg of IFO), day 0, free form, listed as geranyloxy-IFO) of the same compound?
The value was “prevent the tumor growth”.

What about the IC50 (RMS-1 cell line [2]; RMS1, 72 h) of the same compound?
The IC50 was 9.3 ± 4.2 µM.

And the “cytotoxicity, in words” value (RMS-1 cell line [2]; [9])?
The value was “significant cytotoxicity”.

And the “cytotoxicity, in words” value [3, 10]?
The value was “significant cytotoxicity”.

What about the IC50 ([3]; A673, 72 h) of the same compound?
The IC50 was 25.3 ± 1.5 µM.

And the “release of 4-HO-IFO, in words” value [8]?
Its value is “released”.

Which results are given for `CCCCCO` [Pentanol, pentanol]?
cytotoxicity, in words (RMS-1 cell line [2]): The same results were observed; IC50 (RMS-1 cell line [2]; RMS1, 72 h): > 500 µM; cytotoxicity, in words [3]: The same results were observed; IC50 ([3]; A673, 72 h): > 200 µM

With `CC(C)=CCC/C(C)=C/CC/C(C)=C/CC/C=C(\C)CC/C=C(\C)CCC(=O)NCCSC1CCOP(=O)(NCCCl)N1CCCl` (stereo not drawn) [SQ-thio-IFO] as the compound, how does the drug loading [5] read?
Its drug loading is 36.3%.

What about the mean diameter [5] of the same compound?
The mean diameter was 170 nm.

What about the IC50 [6] of the same compound?
The IC50 was 23.2 ± 1.3 µM.

What about the IC50 (RMS-1 cell line [7]) of the same compound?
Its IC50 is 33 ± 1.8 µM.
